“And” between values parts separate entries of the source, which are not always exact repeats. Identical values can stand only once. Like-named read-outs stand apart in the source and are kept apart here.
Columns and labels:
[1] = test system: Coriolus versicolor. CTB 863 A; assay: EN 113 test against wood destroying basidiomycetes; format: cell-based; conditions: for Corrected mass loss, Mean / Mass loss, Mean: mean of blocks; for Corrected mass loss / Mass loss: single blocks
Procedure: EN 113, 2020: Durability of wood and wood-based products-Test method against wood destroying basidiomycetes. Assessment of biocidal efficacy of wood preservatives. […] The impregnation process was carried out on 24-03-2021 with the following conditions: Pre-vacuum at 0.1 bar for 30 minutes. Pressure of 13 bars for 60 minutes. Beech (Fagus sylvatica L.) for white rot fungi (Coriolus versicolor) with an average density 725 kg/m3. 4 weeks according to EN 113 at 65% RH and 20° C. until stable mass was obtained. Ionising radiation (2× 25 kGy).

[2] = test system: bacteria; assay: Tap water and polluted water treated with NDBA: bacteria count and BSI; format: cell-based; conditions: 300 grams water, 32° C.
[3] = test system: Debaryomyces hansenii ISI 12; assay: Minimal inhibitory concentration (MIC); format: cell-based
Procedure: (§1) Minimum inhibitory concentrations (MICs) are defined as the lowest concentration of an antimicrobial that will inhibit the visible growth of a microorganism after a standardized incubation. In the present study, MIC assay was performed by pipetting robot. The principle is that an indicator microorganism at a defined cell density is cultured with a range of concentrations of the test compound, one concentration pr, well in a row on the microtiter plate. For bacteria and yeasts the minimal inhibitory concentration was detected as no increase of optical density (OD), for moulds microtiter plates were read visually. Each indicator organism is tested in duplicate and the MIC is calculated as the average of the two determinations. The tested concentrations of the antimicrobial substances were 2-fold dilutions from 5%. All indicator organisms (see Table 2.) were pre-cultivated in a suitable growth medium and diluted in the same medium to give a final concentration in the assay of ˜1×10^3 cfu/ml. The microtiter plates were incubated under specific incubation conditions (see Table III). [table]

[4] = test system: Candida albicans ISI 1226; assay: Minimal inhibitory concentration (MIC); format: cell-based
Procedure: as §1

[5] = test system: Leuconostoc mesenteroides ISI 504; assay: Minimal inhibitory concentration (MIC); format: cell-based
Procedure: as §1

[6] = test system: Listeria monocytogenes ISI 22; assay: Minimal inhibitory concentration (MIC); format: cell-based
Procedure: as §1

[7] = test system: Salmonella Infantis ISI 170; assay: Minimal inhibitory concentration (MIC); format: cell-based
Procedure: as §1

[8] = test system: rat; assay: LD50 (rat, oral); format: in vivo; conditions: extrapolated from rat LD50 4250 mg/kg
[9] = test system: Poliovirus; format: cell-based
[10] = test system: Vaccinia; assay: ASTM E1052 Kill Time Screen test, antiviral activity; format: cell-based
[11] = test system: Murine norovirus; assay: as above; format: cell-based
[12] = test system: Coniophora puteana; assay: Wood impregnation with 10 and 20% NBDA, 6 weeks of exposure; format: cell-based; conditions: for Corrected mass loss, Mean / Mass loss, Mean / Corrected mass loss / Mass loss: 6 weeks of exposure; for Corrected mass loss, Mean / Mass loss, Mean: mean of blocks; for Corrected mass loss / Mass loss: single blocks
Text: Below table presents results from impregnation with 10 and 20% NBDA to water phase. It is expected that concentrations of up to at least 35% NBDA and/or APDEA and/or 2,2′-(octylimino)bisethanol are showing promising results.

[13] = test system: Aspergillus niger ISI 3; assay: Minimum bactericidal concentration (MBC); format: cell-based
Text: Even when no growth is detectable in the MIC tests, it is possible that the microorganisms have survived the treatment i.e., they are not killed but just prevented from growing. In order to test for survivors, MBC plates were subsequently made from the MIC plates.

SMILES: CCCCN(CCO)CCO [NBDA, N-butyldiethanolamine]
- Toxic value, Retention of product ([1]; Beech): >15.40 kg/m^3
- Toxic value, Solution conc. ([1]; Beech): >2.20 % w/w
- Corrected mass loss, Mean ([1]; solution conc. 0.55 % w/w): 26.8%
- Mass loss, Mean ([1]; solution conc. 0.55 % w/w): 26.8%
- Corrected mass loss ([1]; solution conc. 0.55 % w/w): 32.3% and 27.5% and 25.6% and 21.8%
- Mass loss ([1]; solution conc. 0.55 % w/w): 32.3% and 27.5% and 25.6% and 21.8%
- Corrected mass loss, Mean ([1]; solution conc. 0.78 % w/w): 31.8%
- Mass loss, Mean ([1]; solution conc. 0.78 % w/w): 31.7%
- Corrected mass loss ([1]; solution conc. 0.78 % w/w): 26.0% and 25.1% and 31.3% and 44.7%
- Mass loss ([1]; solution conc. 0.78 % w/w): 25.9% and 25.0% and 31.2% and 44.6%
- Corrected mass loss, Mean ([1]; solution conc. 1.09 % w/w): 31.2%
- Mass loss, Mean ([1]; solution conc. 1.09 % w/w): 30.9%
- Corrected mass loss ([1]; solution conc. 1.09 % w/w): 30.5% and 29.8% and 29.4% and 34.9%
- Mass loss ([1]; solution conc. 1.09 % w/w): 30.2% and 29.5% and 29.2% and 34.6%
- Corrected mass loss, Mean ([1]; solution conc. 1.55 % w/w): 28.3%
- Mass loss, Mean ([1]; solution conc. 1.55 % w/w): 27.4%
- Corrected mass loss ([1]; solution conc. 1.55 % w/w): 28.6% and 26.8% and 27.3% and 30.3%
- Mass loss ([1]; solution conc. 1.55 % w/w): 27.8% and 25.9% and 26.4% and 29.5%
- Corrected mass loss, Mean ([1]; solution conc. 2.20 % w/w): 25.7%
- Mass loss, Mean ([1]; solution conc. 2.20 % w/w): 24.1%
- BSI ([2]; Polluted water + 0.5%): 48
- bacteria count ([2]; Polluted water + 0.5%): 56.2
- BSI ([2]; Tapwater + 0.5%): 56
- bacteria count ([2]; Tapwater + 0.5%): 7.35
- MIC (%) [3]: 1.25%
- MIC data (optical density) ([3]; 0.02% NBDA): 1.027 and 1.215
- MIC data (optical density) ([3]; 0.04% NBDA): 0.964 and 1.224
- MIC data (optical density) ([3]; 0.08% NBDA): 0.974 and 1.114
- MIC data (optical density) ([3]; 0.16% NBDA): 0.975 and 1.145
- MIC data (optical density) ([3]; 0.31% NBDA): 0.877 and 0.973
- MIC data (optical density) ([3]; 0.63% NBDA): 0.619 and 0.582
- MIC data (optical density) ([3]; 1.25% NBDA): 0.047
- MIC data (optical density) ([3]; 2.50% NBDA): 0.045 and 0.046
- MIC data (optical density) ([3]; 5.00% NBDA): 0.044 and 0.043
- MIC (%) [4]: 0.63%
- MIC data (optical density) ([4]; 0.02% NBDA): 1.272 and 1.291
- MIC data (optical density) ([4]; 0.04% NBDA): 1.243 and 1.259
- MIC data (optical density) ([4]; 0.08% NBDA): 1.223 and 1.256
- MIC data (optical density) ([4]; 0.16% NBDA): 1.118 and 1.134
- MIC data (optical density) ([4]; 0.31% NBDA): 0.886 and 0.984
- MIC data (optical density) ([4]; 0.63% NBDA): 0.056
- MIC data (optical density) ([4]; 1.25% NBDA): 0.051 and 0.050
- MIC data (optical density) ([4]; 2.50% NBDA): 0.047 and 0.046
- MIC data (optical density) ([4]; 5.00% NBDA): 0.042 and 0.044
- MIC (%) [5]: 0.31%
- MIC data (optical density) ([5]; 0.02% NBDA): 1.025 and 0.943
- MIC data (optical density) ([5]; 0.04% NBDA): 1.135 and 1.104
- MIC data (optical density) ([5]; 0.08% NBDA): 1.005 and 1.027
- MIC data (optical density) ([5]; 0.16% NBDA): 1.065 and 0.990
- MIC data (optical density) ([5]; 0.31% NBDA): 0.051 and 0.052
- MIC data (optical density) ([5]; 0.63% NBDA): 0.047 and 0.049
- MIC data (optical density) ([5]; 1.25% NBDA): 0.046 and 0.047
- MIC data (optical density) ([5]; 2.50% NBDA): 0.046
- MIC data (optical density) ([5]; 5.00% NBDA): 0.044 and 0.041
- MIC (%) [6]: 1.25%
- MIC data (optical density) ([6]; 0.02% NBDA): 1.182 and 1.216
- MIC data (optical density) ([6]; 0.04% NBDA): 1.184 and 1.216
- MIC data (optical density) ([6]; 0.08% NBDA): 1.165 and 1.119
- MIC data (optical density) ([6]; 0.16% NBDA): 1.074 and 0.574
- MIC data (optical density) ([6]; 0.31% NBDA): 1.027 and 0.645
- MIC data (optical density) ([6]; 0.63% NBDA): 0.938 and 0.759
- MIC data (optical density) ([6]; 1.25% NBDA): 0.047 and 0.048
- MIC data (optical density) ([6]; 2.50% NBDA): 0.046 and 0.056
- MIC data (optical density) ([6]; 5.00% NBDA): 0.045 and 0.056
- MIC (%) [7]: 1.25%
- MIC data (optical density) ([7]; 0.02% NBDA): 1.662 and 1.413
- MIC data (optical density) ([7]; 0.04% NBDA): 1.501 and 1.629
- MIC data (optical density) ([7]; 0.08% NBDA): 1.640 and 1.623
- MIC data (optical density) ([7]; 0.16% NBDA): 1.566 and 1.546
- MIC data (optical density) ([7]; 0.31% NBDA): 1.389 and 1.282
- MIC data (optical density) ([7]; 0.63% NBDA): 0.905 and 0.965
- MIC data (optical density) ([7]; 1.25% NBDA): 0.046 and 0.040
- MIC data (optical density) ([7]; 2.50% NBDA): 0.047 and 0.044
- MIC data (optical density) ([7]; 5.00% NBDA): 0.044 and 0.043
- human consummation equivalent to LD50 [8]: 319 gram pr 75 kg
- Mean log reduction after 60 seconds ([9]; 1.0% NBDA): 0.26
- Mean log reduction after 60 seconds ([9]; 5.0% NBDA): 0.17
- Mean log reduction after 60 seconds ([10]; 1.0% NBDA): 0.17
- Mean log reduction after 60 seconds ([10]; 5.0% NBDA): 0.09
- Mean log reduction after 60 seconds ([11]; 1.0% NBDA): 0.34
- Mean log reduction after 60 seconds ([11]; 5.0% NBDA): 0.34
- Norovirus eliminated (destroyed) in 60 seconds ([11]; from log reduction 0.34): 54%
- wood protection at high concentrations ([12]; impregnation with 10 and 20% NBDA to water phase): strong results
- Corrected mass loss, Mean ([12]; solution conc. 10.00 % w/w): 0.3%
- Mass loss, Mean ([12]; solution conc. 10.00 % w/w): −0.4%
- Corrected mass loss ([12]; solution conc. 10.00 % w/w): −0.4% and 0.3% and 0.9% and 0.0% and 1.1% and −0.2% and −0.8%
- Mass loss ([12]; solution conc. 10.00 % w/w): −0.9% and −0.2% and 0.4% and −0.5% and 0.6% and −0.7% and −1.3%
- Corrected mass loss, Mean ([12]; solution conc. 20.00 % w/w): 0.0%
- Mass loss, Mean ([12]; solution conc. 20.00 % w/w): −1.5%
- Corrected mass loss ([12]; solution conc. 20.00 % w/w): 0.3% and −0.1% and −0.5% and −0.8% and −0.7% and −0.6%
- Mass loss ([12]; solution conc. 20.00 % w/w): −0.7% and −1.1% and −1.6% and −1.8% and −1.7%
- MBC (%) [13]: 0.63%
